Measurements reported in patent US12678509B2, “Inhibitor of apoptosis (IAP) protein antagonists” (Sanford Burnham Prebys Medical Discovery Institute, priority 2019, dated 2026).
pIC50, pKi: −log10 of the molar value. Like-named read-outs stand apart in the source and are kept apart here.

Legend:
[1] = test system: MOLM 13; experiment: Cell viability (CellTiter-Glo), 6-day compound treatment; type: cell-based, Human; conditions: for pIC50: Homo sapiens, MOLM-13, 144 h
How it was run: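 Cells plated at 1700 per well, left overnight at 37° C./5% CO2, then exposed to 10-fold compound dilutions for 6 days […]. Viability by CellTiter-Glo luminescence; IC50 from nonlinear regression fit.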

[2] = test system: SKOV-3; experiment: Cell viability (CellTiter-Glo), 48 hrs; type: cell-based; conditions: Homo sapiens, SK-OV-3, 48 h, read-out: SKOV-3 Viability 48 h IC50
[3] = target: BIR3 domain of cIAP2 (Homo sapiens, UniProt Q13489); experiment: Fluorescence polarization assay; type: binding; conditions: SMAC-FITC probe, Ki calculated from IC50
BIR3 domain of cIAP2, sequence (Q13489 238-349 limits assumed): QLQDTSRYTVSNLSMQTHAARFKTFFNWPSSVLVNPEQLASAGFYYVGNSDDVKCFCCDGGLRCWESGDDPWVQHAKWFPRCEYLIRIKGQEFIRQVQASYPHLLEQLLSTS
How it was run: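 Competitive FP with 50 nM SMAC-FITC probe in 100 mM KH2PO4 pH 7.5, 50 μM ZnSO4, 1 mM TCEP; cIAP1 and XIAP at 800 nM, cIAP2 and ML-IAP at 1.5 μM. Compounds 30 μM to 1.5 nM in 3-fold steps; ex 485/em 535 nm. IC50 by nonlinear fit, converted to Ki via Nikolovska-Coleska equation.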

[4] = test system: resting CD4+ T cells; experiment: T cell activation (CD69 and CD25 expression, flow cytometry); type: cell-based; conditions: resting CD4+ T cells of healthy human donors (FIG. 2)
Protocol: (§1) Compound 18a was also tested for its impact on T cell activation and cytokine release. Peripheral blood mononuclear cells (PBMC) were isolated by Ficoll density gradient centrifugation (Histopaque, Sigma Aldrich) from buffy coats of three healthy human donors (San Diego Blood Bank). Resting CD4^+ T cells were subsequently isolated by negative selection using magnetic beads (Miltenyi Biotec). Cells were treated with compound 18a, or 50 ng/ml Phorbol myristate acetate (PMA) and 1 μM lonomycin, or Dynabeads Human T-Activator CD3/CD28 (ThermoFisher Scientific) at a bead-to-cell ratio of 1:1, or left untreated. Expression of the early and late activation markers CD69 and CD25 on CD4+ T cells was assessed by flow cytometry using a Phycoerythrin-labeled anti-CD69 antibody (BioLegend; Cat #310906) and an Allophycocyanin-labeled anti-CD25 antibody (BioLegend; Cat #302610). Cytokine expression levels in cultures of PBMC or resting CD4+ T cells were analyzed using the LEGENDplex Human Inflammation Panel 13-plex (BioLegend).

[5] = test system: PBMC or resting CD4+ T cells; experiment: Cytokine release (LEGENDplex Human Inflammation Panel 13-plex); type: cell-based; conditions: PBMC or resting CD4+ T cells of healthy human donors (FIG. 3)
Protocol: as §1

[6] = test system: cIAP1 degradation and p100 cleavage in JLat 10.6 cells; experiment: cIAP1 degradation and p100 cleavage (western blot) with GFP expression; type: cell-based; conditions: 24 hours, different concentrations (FIG. 4)
Protocol: JLat 10.6 cells were treated with different concentrations of compound 18a for 24 hours. GFP expression indicating latency reversal was measured by flow cytometry. cIAP1 degradation and p100 cleavage were assessed by western blot using the antibodies AF8181 (R&D Systems) and #4882 (Cell Signaling Technology), respectively.

[7] = test system: latently infected cell line Jurkat 2D10; experiment: Combination with other LRA, Bliss Independence model, GFP expression; type: cell-based; conditions: Jurkat 2D10, 48 hours, with JQ1, I-BET 151, Bryostatin, Ingenol-3-angelate
Protocol: Compound 18a was also tested in combination with other LRA reagents for synergistic activation of the latently infected cell line Jurkat 2D10. Jurkat 2D10 cells were treated with combinations of compound 18a and BET inhibitors (JQ1, I-BET 151) or PKC agonists (Bryostatin, Ingenol-3-angelate) for 48 hours. Reversal of HW latency was evaluated by analyzing GFP expression using flow cytometry. Synergy was assessed with the Bliss Independence model where the observed effect of a combination of compounds f12 is compared to the expected effect E(f12) that is calculated based on the observed effects of the individual compounds f1 and f2 using the formula E(f12)=f1+J2−(f1*f2). The difference between the observed effect of the combined compounds (f12) and the expected combined effect of the two compounds E(f12) is given as the excess over Bliss score (EOB). An EOB value greater than 0 indicates synergy between the compounds.

[8] = Pharmacokinetic study in mice, snapshot PK; type: in vivo; conditions: female, C57BL/6J, mouse, plasma, ip, one hour after i.p. injection of 10 mg/kg
Protocol: All animal procedures were approved by the Sanford Burnham Prebys Medical Discovery Institute Institutional Animal Care and Use Committee and were performed according to the NIH guidelines for the Care and Use of Laboratory Animals. Adult female C57BL/6J were purchased from JAX laboratories and housed with free access to food and water on a 12 h light/dark cycle. Compounds were formulated in 5% DMSO, 10% Tween-80, and 85% dH2O and injected intraperitoneally (i.p.) into mice at doses of 10 mg/kg. For snapshot PK analysis, blood samples were collected retro-orbitally one hour after injection and for the time course PK study, blood samples were collected at 15 min, 30 min, 1 h, 2 h, 4 h, 6 h, 24 h time points. For the blood samples plasma was separated by centrifugation. Plasma samples were extracted with acetonitrile:water 4:1 with 0.1% formic acid containing indometacin as an internal standard. Samples were centrifuged and supernatants were diluted with acetonitrile:water and analyzed via LC-MS/MS on a Shimadzu Nexera X2 HPLC coupled to an AB Sciex 6500 QTRAP.
Plasma exposure of selected compounds at 1 h compared.
Plasma levels of parent compound determined one hour after i.p. injection of 10 mg/kg

With `CN[C@@H](C)C(=O)N[C@H]1CCS[C@H]2CC(C)(C)[C@@H](C(=O)N[C@H]3c4ccccc4C[C@H]3OCC#CC#CCO[C@@H]3Cc4ccccc4[C@@H]3NC(=O)[C@H]3N4C(=O)[C@@H](NC(=O)[C@H](C)NC)CCS[C@H]4CC3(C)C)N2C1=O` [Compound 18a, (2S)-1-{[(4S,7S,9aS)-74{(1S,2R)-2-[(6-{[(1S,2R)-1-({[(4S,7S,9aS)-8,8-Dimethyl-4-{[(2S)-2-(methylammonio)propanoyl]amino}-5-oxooctahydropyrrolo[2,1-b][1,3]thiazepin-7-yl]carbonyl}amino)-2,3-dihydro-1H-inden-2-yl]oxy}hexa-2,4-diyn-1-yl)oxy]-2,3-dihydro-1H-inden-1-yl}carbamoyl)-8,8-dimethyl-5-oxooctahydropyrrolo[2,1-b][1,3]thiazepinyl]amino}-N-methyl-1-oxopropan-2-ammonium dichloride] the pIC50 ([1]; read-out: IC50 6 d) was 7.00 to 8.00, the pIC50 ([1]; read-out: MOLM 13 Viability 6 d IC50) was 7.00 to 8.00 and the “Cell viability at max. concentration” value ([1]; MOLM 13, 6 d) was “I (I<10%)”. The pIC50 [2] was over 8.00, the pKi [3] was 7.00 to 7.30 and the “activation of resting CD4+ T cells (CD69, CD25)” value [4] was “did not induce activation of resting CD4+ T cells”. For the same compound, the cytokine release [5] was “did not induce”, the “cIAP1 degradation and p100 cleavage” value [6] was “correlated with HW latency reversal” and the “synergy with LRA compounds in reversal of HIV latency” value [7] was “synergizes with the tested LRA compounds to reverse HW latency”. It also gave a concentration at 1 h [8] of 3.52 µM.
